# Values of other authors as cited in publication PMC8429736, “Pharmacological characterization of mutant huntingtin aggregate-directed PET imaging tracer candidates” (Scientific Reports, 2021).
# Parameters: method as in PMID 34351166, PMID 32662649
# Conditions: cited from earlier work
smiles,measurement,value
COc1ccc(COc2ccc3oc(-c4ccc(=O)n(C)n4)nc3c2)nc1 [CHDI-180],"plasma, microsomal, and hepatocyte stability",acceptable
